In PubChem BioAssay (NCI) one finds TGI and GI50 data, which are given here for 19 compounds.

Test systems include DMS 114 small cell lung; DMS 273 small cell lung; HOP-18 NSCLC; KM20L2 colon; LXFL 529 NSCLC; RXF-631 renal; SNB-78 CNS; XF 498 CNS; MDA-N.
Experiment in all cases: NCI tumour cell line growth inhibition, 48 h

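Step 1: Grow cells in 96-well plates. Step 2: Expose to compound for 48 hours at 5 concentrations. Step 3: Interpolate endpoints linearly; if unreached, use highest concentration. At the GI50, growth is halved. The concentration for full growth arrest is given as TGI.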

Turning to `C[Si](C)(C)CN1C(=O)c2ccccc2C1(O)c1ccccc1` (configuration not stated), the TGI in the assay with DMS 114 small cell lung, in the assay on DMS 273 small cell lung, with HOP-18 NSCLC, in the assay with KM20L2 colon, with LXFL 529 NSCLC and in the assay with RXF-631 renal was more than 100 µM throughout. For the same compound, the TGI in the assay on SNB-78 CNS and in the assay on XF 498 CNS was more than 100 µM each time.

As to `Cc1ccc(N2C(=O)N(c3ccc(C)cc3)C3(SC=NN3C)C2=O)cc1` (configuration not stated), the TGI in the assay on DMS 114 small cell lung, with HOP-18 NSCLC, in the assay with KM20L2 colon, with LXFL 529 NSCLC and with SNB-78 CNS was more than 100 µM each time.

On to `NCCN.O=C([O-])[O-].O=C([O-])[O-].[Co+3].[K+]`, for which the GI50 with DMS 114 small cell lung, in the assay with KM20L2 colon, with LXFL 529 NSCLC and with SNB-78 CNS was more than 100 µM each time. Further, the TGI in the assay with DMS 114 small cell lung, with KM20L2 colon, in the assay with LXFL 529 NSCLC and in the assay on SNB-78 CNS was more than 100 µM throughout.

`COc1ccc(/C=C/c2cnccn2)cc1OC`: the TGI in the assay with MDA-N is more than 10 µM.

With `CC(=O)[CH-]C(=O)c1ccccc1.CC(=O)[CH-]C(=O)c1ccccc1.O=S(=O)([O-])c1cc([O-])c2c([O-])cc(S(=O)(=O)[O-])cc2c1.[Na+].[Ti+4]`, in the assay on KM20L2 colon, the GI50 is more than 100 µM and the TGI is more than 100 µM.

Consider `Cc1c(Cl)cccc1NC(=O)c1cccc([N+](=O)[O-])c1O`, for which the TGI was 48.7 µM in the assay with DMS 114 small cell lung; 79.8 µM with DMS 273 small cell lung; more than 28.9 µM in the assay with HOP-18 NSCLC; 54.3 µM in the assay with KM20L2 colon; more than 75.1 µM in the assay with LXFL 529 NSCLC; more than 100 µM in the assay on RXF-631 renal. For the same compound, the results for the TGI with SNB-78 CNS and with XF 498 CNS were more than 92.6 µM and 38.8 µM, respectively.

Regarding `O=C1c2ccccc2C(=O)N1C/C=N/NS(=O)(=O)c1ccc(Br)cc1`, the TGI with DMS 114 small cell lung, in the assay on DMS 273 small cell lung, in the assay on HOP-18 NSCLC, in the assay with KM20L2 colon, in the assay with LXFL 529 NSCLC and with RXF-631 renal was more than 100 µM in each case. The TGI in the assay on SNB-78 CNS and with XF 498 CNS was more than 100 µM each time.

On to `CSc1ccc2c(cc1=O)[C@@H](NC(=O)c1cc(O)c(O)c(O)c1)CCc1cc(O)c(O)c(O)c1-2`, for which the TGI with DMS 273 small cell lung is 39.9 µM; with KM20L2 colon, more than 100 µM; in the assay with LXFL 529 NSCLC it was 37.8 µM; in the assay with RXF-631 renal it was 30.4 µM; with SNB-78 CNS, 91.8 µM; in the assay with XF 498 CNS, 39.4 µM.

Consider `N#Cc1c(-c2ccco2)cc(-c2ccc(N)cc2)[nH]c1=O`, for which the TGI in the assay on DMS 114 small cell lung, in the assay with DMS 273 small cell lung, in the assay on HOP-18 NSCLC, with KM20L2 colon, with LXFL 529 NSCLC and in the assay on RXF-631 renal was more than 100 µM in each case.

With `Cn1c(=S)c2[nH]c(SCCCc3ccccc3)nc2n(C)c1=O`, the TGI with MDA-N was more than 100 µM.

Turning to `Cc1ccc2c(c1-c1ccccc1)C(=O)OC2`, the TGI in the assay with DMS 114 small cell lung is more than 100 µM; in the assay with DMS 273 small cell lung it was more than 100 µM; with HOP-18 NSCLC, more than 100 µM; in the assay with KM20L2 colon, 60.7 µM; in the assay with LXFL 529 NSCLC it was more than 100 µM; in the assay on RXF-631 renal it was more than 100 µM. In the assay on SNB-78 CNS, the TGI is more than 100 µM.

With `CCC[CH2][Sn]1([CH2]CCC)[O]CC(COc2c(Cl)cc(Cl)cc2Cl)[O]1` (configuration not stated), the GI50 in the assay on DMS 114 small cell lung is 0.403 µM; in the assay on DMS 273 small cell lung, 1.78 µM; with HOP-18 NSCLC, 1.41 µM; in the assay with KM20L2 colon, 2.98 µM; with LXFL 529 NSCLC it was 0.375 µM; with SNB-78 CNS, 0.962 µM. Besides, the TGI in the assay with DMS 114 small cell lung amounted to 1.58 µM; in the assay on DMS 273 small cell lung, 3.44 µM; with HOP-18 NSCLC, 2.71 µM; with KM20L2 colon, 10.7 µM; with LXFL 529 NSCLC, 1.58 µM; in the assay on SNB-78 CNS it was 3.49 µM.

In the case of `CCc1cccc(C)c1NC(=O)CC1C(=O)Nc2ccccc2S1=O` (configuration not stated), the TGI in the assay on DMS 273 small cell lung was more than 100 µM; in the assay with KM20L2 colon, 90.4 µM; in the assay on LXFL 529 NSCLC, more than 100 µM; in the assay on SNB-78 CNS, more than 100 µM; in the assay with XF 498 CNS it was more than 100 µM.

As for `CC(C)(C)c1cc(C(=O)/C=C/c2ccc(C(=O)O)cc2)cc(C(C)(C)C)c1`, in the assay on MDA-N, the TGI stood at 8.6 µM.

Compound `CC(=O)NC1CONC1=O` (configuration not stated) yielded a TGI in the assay on MDA-N of more than 100 µM.

For the compound `C1=NC(N(Cc2ccccc2)Cc2ccccc2)N(Cc2ccccc2)N1` (configuration not stated), the TGI in the assay on DMS 114 small cell lung stood at 29.3 µM; in the assay with DMS 273 small cell lung it was 29.1 µM; with HOP-18 NSCLC, 45.7 µM; in the assay with KM20L2 colon it was 30.8 µM; in the assay on LXFL 529 NSCLC, 30.7 µM; with RXF-631 renal, 56 µM. Further, the TGI in the assay on SNB-78 CNS was more than 100 µM.

The compound `CC(Cl)CN1c2ccccc2Sc2ccc(Cl)cc21` (configuration not stated) gave a TGI with MDA-N of more than 10 µM.

Regarding `Cc1ccc(C)c(N2C(=O)C(=O)C(c3nc4ccccc4o3)/C(=N\NC(=O)c3ccccc3O)C2=O)c1` (configuration not stated), the TGI is 71.3 µM with DMS 114 small cell lung; 36.1 µM in the assay with DMS 273 small cell lung; more than 100 µM with HOP-18 NSCLC; more than 100 µM in the assay on KM20L2 colon; more than 100 µM in the assay with LXFL 529 NSCLC; more than 100 µM in the assay on SNB-78 CNS.

`Cc1ccc2[c](c1)[Sn]([c]1ccccc1)([c]1ccccc1)[c]1cc(C)ccc1N2C`: the GI50 was 28.7 µM in the assay on DMS 114 small cell lung; 44.5 µM with DMS 273 small cell lung; more than 100 µM in the assay with HOP-18 NSCLC; more than 100 µM in the assay on KM20L2 colon; 26.6 µM in the assay with LXFL 529 NSCLC; 46.2 µM with SNB-78 CNS. Besides, the GI50 with XF 498 CNS was 63.6 µM. For the same compound, the TGI in the assay on DMS 114 small cell lung, with DMS 273 small cell lung, in the assay on HOP-18 NSCLC, in the assay with KM20L2 colon, with LXFL 529 NSCLC and with SNB-78 CNS was more than 100 µM each time. Further, the TGI in the assay on XF 498 CNS was more than 100 µM.
